# Reference: US20070293443A1, “Composition for Accelerating Calcium Absorption” (Good Shusei Co. Ltd, priority 2004, published 2007)
# “Also recorded” adds a separate entry of the source.
# Columns and labels:
# [1] = test system: dietary calcium absorption; assay: Dietary calcium absorption accelerating effect, blood calcium level after oral calcium carbonate with test substance (Example 1); type: in vivo; settings: male ICR mice, oral 5 mmol/kg calcium carbonate alone or with test substance (1.25-10.0 mmol/kg), up to 4 hours after administration
# From the text: For the experiment, 11-weeks old male ICR mice were used after overnight fasting. During the test period, the mice were given deionized water only. […] The doses of L-arabonic acid administered in combination were 1.25 mmol/kg (Group II), 2.5 mmol/kg (Group III), 5.0 mmol/kg (Group IV), and 10.0 mmol/kg (Group V), and the doses of D-gluconic acid were 2.5 mmol/kg (Group VI), 5.0 mmol/kg (Group VII), and 10.0 mmol/kg (Group VIII). […] The blood calcium level was quantified by a chelate colorimetric method (ortho-cresolphthalein complexone (OCPC) method). The obtained data were analyzed by a paired t-test, and a risk ratio of 5% or less was considered as significant difference.
# mice = assay: Single oral administration safety test, LD50; type: in vivo
# From the text: As a result of a single oral test using mice, it was confirmed that the LD50 value of L-arabonic acid was about 10 g/kg, and thus L-arabonic acid was a material having high safety.
# While it was discovered in Example 5 that the calcium moiety of calcium L-arabonate used in the invention was extremely readily-absorbable, it was shown in Example 6 that the L-arabonic acid moiety was extremely poorly absorbed in the digestive tract.
# [2] = Kinetics of L-arabonic acid in the digestive tract of rat (Example 3); type: in vivo
# Protocol: For the experiment, 7 to 11-weeks old male Wistar rats were used after overnight fasting. After orally administering 5 mmol/kg of L-arabonic acid, the animals were entered into a metabolic cage, and were sacrificed after 2 hours, after 6 hours, and after 24 hours, to remove the digestive tracts. The contents in each site of the digestive tract were recovered respectively, and the amount of unaltered L-arabonic acid was quantified by the HPLC method. The entire amounts of urine and feces up to the respective time points were recovered, and the amounts of L-aranobic acid were quantified in the same manner. During the test period, the animals were given deionized water only.
# [3] = test system: dietary calcium absorption; assay: Dietary calcium absorption accelerating effect of sodium L-arabonate in mice fed calcium-deficient diet (Example 2); type: in vivo; settings: for Ca level in blood, 0 min: 0 min (before administration); for Ca level in blood, 0 min / Ca level in blood, 2 hrs / Ca level in blood, 4 hrs: oral 5 mmol/kg calcium carbonate alone (Group I) or with 5 mmol/kg sodium L-arabonate (Group II), n = 4; for Ca level in blood, 2 hrs: 2 hrs after administration; for Ca level in blood, 4 hrs: 4 hrs after administration; for change in blood calcium level: up to 4 hours after oral administration, mice on calcium-deficient diet
# Protocol: Eight-week old male ICR mice were used and fed calcium-deficient diet and deionized water for one week. The mice were fasted overnight before the test, and were given deionized water only during the test period. […] The obtained data were analyzed by a paired t-test, and a risk ratio of 5% or less was considered as significant difference.
# [4] = Blood calcium level after administration of calcium L-arabonate (Example 5); type: in vivo; settings: male ICR mice, oral calcium L-arabonate 1.25, 2.5, 5.0 mmol/kg or calcium carbonate 5 mmol/kg, up to 4 hours
# Protocol: For the experiment, 11-weeks old male ICR mice were used after overnight fasting. During the test period, the mice were given deionized water only. The mice were divided into four groups (Groups I to IV, 5 animals in each group), and the test substance was orally administered as a solution in deionized water. […] The blood calcium level was quantified by a chelating calorimetric method (ortho-cresolphthalein complexone (OCPC) method). The obtained data were analyzed by a paired t-test, and a risk ratio of 5% or less was considered as significant difference.
# [5] = test system: experimental osteoporosis induced by calcium-deficient diet; assay: Experimental osteoporosis induced by calcium-deficient diet (Example 7); type: in vivo, mice; settings: dose 2.5 mmol/kg oral daily
# Protocol: (§1) Six-week old female ICR mice were divided into five groups (Groups I to V, 10 animals in each group), and fed calcium-deficient feed (calcium carbonate-free AIN 93M, Oriental Yeast Co., Ltd.) for 4 weeks to induce osteoporosis condition. Calcium L-arabonate was dissolved in water and orally administered daily in a dose of 1.25 mmol/kg (Group II) or 2.5 mmol/kg (Group III). The control group for pathological condition (Group I) was administered with water in the same manner. As a comparative group, a group administered with calcium D-gluconate (dose 2.5 mmol/kg (Group IV)) was provided. A normal control group (Group V) was separately provided and was given the normal feed (AIN 93M, Oriental Yeast Co., Ltd.). After administering the test substance on the second week and fourth week of initiation of the test, the animals were transferred to a metabolic cage, and feces were collected for 24 hours. The amount of calcium and phosphorus excreted in the feces were measured, and the absorption rates of ingested calcium and phosphorous in the digestive tract were determined. After completion of the test period, the animals of the respective groups were sacrificed to remove both femurs and tibiae. The femurs and tibiae were removed muscles etc., then immersed in 70% ethanol overnight, and dried at 60° C. for 24 hours to be used as samples for analysis. The measurement items were dry weight, ash content, calcium content, and phosphorus content. The ash content was measured by an ashing method at 550° C. for 18 hours, the calcium content was measured by an OCPC method (Calcium C-Test Wako, Wako Pure Chemical Industries, Ltd.), and the phosphorus content was measured by a p-methylaminophenol reduction method (Phospho C-Test Wako, Wako Pure Chemical Industries, Ltd.). The obtained data were analyzed by ANOVA and the Dunnett's method, and a risk ratio of 5% or less was considered as significant difference.
# [6] = test system: experimental osteoporosis induced by combination of ovary excision and calcium-deficient diet; assay: Experimental osteoporosis due to combination of ovary excision and calcium-deficient diet (Example 8); type: in vivo, mice; settings: dose 2.5 mmol/kg oral daily
# Protocol: as §1
# Six-weeks old female ICR mice excised their ovaries were divided into 5 groups (Groups I to V, 10 animals in each group), and fed calcium-deficient feed (calcium carbonate-free AIN 93M, Oriental Yeast Co., Ltd.) for 4 weeks to induce osteoporosis condition. Calcium L-arabonate was dissolved in water, and orally administered daily in a dose of 1.25 mmol/kg (Group II) or 2.5 mmol/kg (Group III). The control group for pathological condition (Group I) was administered with water in the same manner. As a comparative group, a group administered with calcium D-gluconate (dose 2.5 mmol/kg (Group IV)) was provided. Also, a group excised ovaries but given with normal feed (AIN 93M, Oriental Yeast Co., Ltd.) (Group V) was separately provided. The measurement of the absorption rate of calcium in the digestive tract, and the analysis of femur and tibia were performed in the same manner as in Example 7.
compound,measurement,setting,value
"O=C(O)[C@H](O)[C@@H](O)[C@H](O)[C@H](O)CO [D-gluconic acid, reference compound]",change in blood calcium level,[1],not observed to have significant increases in the blood calcium level
O=C(O)[C@H](O)[C@@H](O)[C@@H](O)CO [L-arabonic acid],change in blood calcium level,[1],"dose-dependent and significant increases in the blood calcium level; also recorded: calcium absorption was accelerated by L-arabonic acid, and the effect was rapidly acting and continuous"
same,LD50,mice,about 10 g/kg
same,share of the total amount of administration remained in the cecum and colon,"[2]; after 24 hours, oral 5 mmol/kg",About 30%
same,absorption in the small intestine,[2]; from 2 to 6 hours after oral administration,hardly absorbed in the small intestine
same,"Residual ratio after administration, Cecum, After 2 hrs","[2]; oral 5 mmol/kg L-arabonic acid, cecum, 2 hrs",47.7 ± 3.39%
same,"Residual ratio after administration, Cecum, After 6 hrs","[2]; oral 5 mmol/kg L-arabonic acid, cecum, 6 hrs",60.6 ± 3.26%
same,"Residual ratio after administration, Cecum, After 24 hrs","[2]; oral 5 mmol/kg L-arabonic acid, cecum, 24 hrs",25.9 ± 7.81%
same,"Residual ratio after administration, Colon, After 2 hrs","[2]; oral 5 mmol/kg L-arabonic acid, colon, 2 hrs",0.1 ± 0.14%
same,"Residual ratio after administration, Colon, After 6 hrs","[2]; oral 5 mmol/kg L-arabonic acid, colon, 6 hrs",7.4 ± 2.35%
same,"Residual ratio after administration, Colon, After 24 hrs","[2]; oral 5 mmol/kg L-arabonic acid, colon, 24 hrs",1.9 ± 0.37%
same,"Residual ratio after administration, Small intestine, After 2 hrs","[2]; oral 5 mmol/kg L-arabonic acid, small intestine, 2 hrs",23.0 ± 3.71%
same,"Residual ratio after administration, Small intestine, After 6 hrs","[2]; oral 5 mmol/kg L-arabonic acid, small intestine, 6 hrs",3.3 ± 2.50%
same,"Residual ratio after administration, Small intestine, After 24 hrs","[2]; oral 5 mmol/kg L-arabonic acid, small intestine, 24 hrs",0.8 ± 0.20%
same,"Residual ratio after administration, Stomach, After 2 hrs","[2]; oral 5 mmol/kg L-arabonic acid, stomach, 2 hrs",0%
same,"Residual ratio after administration, Stomach, After 6 hrs","[2]; oral 5 mmol/kg L-arabonic acid, stomach, 6 hrs",0%
same,"Residual ratio after administration, Stomach, After 24 hrs","[2]; oral 5 mmol/kg L-arabonic acid, stomach, 24 hrs",0%
same,L-arabonic acid in excreted feces,"[2]; oral 5 mmol/kg, feces up to 24 hours",detected from the excreted feces
same,unaltered L-arabonic acid in urine,"[2]; oral 5 mmol/kg, urine up to 24 hours","detected from the urine, even in small amount"
same,level of L-arabonic acid in the blood,"[2]; throughout the test period, oral 5 mmol/kg",below the detection limit
"O=C([O-])[O-].[Ca+2] [calcium carbonate, reference compound]",change in blood calcium level,[1],did not show any increase in the blood calcium level
same,"Ca level in blood, 0 min",[3],4.67 ± 0.297 mg/dL
same,"Ca level in blood, 2 hrs",[3],4.58 ± 0.143 mg/dL
same,"Ca level in blood, 4 hrs",[3],4.82 ± 0.189 mg/dL
same,change in blood calcium level,[3],did not show any increase in the blood calcium level
same,change in blood calcium level,[4],did not show any increase in the blood calcium level
O=C([O-])[C@H](O)[C@@H](O)[C@@H](O)CO.[Na+] [sodium L-arabonate],"Ca level in blood, 0 min",[3],4.30 ± 0.121 mg/dL
same,"Ca level in blood, 2 hrs",[3],5.59 ± 0.232 mg/dL
same,"Ca level in blood, 4 hrs",[3],5.62 ± 0.212 mg/dL
same,change in blood calcium level,[3],significant increase in the blood calcium level
calcium D-gluconate [reference compound],"absorption rate of calcium in the digestive tract, fourth week","[5]; fourth week, calcium-deficient diet mice",59.8%
same,"absorption rate of calcium in the digestive tract, second week","[5]; second week, calcium-deficient diet mice",74.2%
same,Femur Ash content,"[5]; femur, 4 weeks",25 ± 1.3 mg
same,Femur Ca content,"[5]; femur, 4 weeks",8.7 ± 0.42 mg
same,Femur P content,"[5]; femur, 4 weeks",4.7 ± 0.21 mg
same,Femur Weight,"[5]; femur, 4 weeks",46 ± 2.1 mg
same,Tibia Ash content,"[5]; tibia, 4 weeks",23 ± 1.2 mg
same,Tibia Ca content,"[5]; tibia, 4 weeks",8.3 ± 0.34 mg
same,Tibia P content,"[5]; tibia, 4 weeks",4.3 ± 0.16 mg
same,Tibia Weight,"[5]; tibia, 4 weeks",44 ± 1.1 mg
same,"absorption rate of calcium in the digestive tract, fourth week","[6]; fourth week, ovary-excised mice on calcium-deficient diet",45.1%
same,"absorption rate of calcium in the digestive tract, second week","[6]; second week, ovary-excised mice on calcium-deficient diet",61.1%
same,Femur Ash content,"[6]; femur, 4 weeks",27 ± 0.4 mg
same,Femur Ca content,"[6]; femur, 4 weeks",9.4 ± 0.18 mg
same,Femur P content,"[6]; femur, 4 weeks",4.8 ± 0.14 mg
same,Femur Weight,"[6]; femur, 4 weeks",50 ± 1.2 mg
same,Tibia Ash content,"[6]; tibia, 4 weeks",24 ± 0.5 mg
same,Tibia Ca content,"[6]; tibia, 4 weeks",8.6 ± 0.21 mg
same,Tibia P content,"[6]; tibia, 4 weeks",4.4 ± 0.08 mg
same,Tibia Weight,"[6]; tibia, 4 weeks",46 ± 1.0 mg
